Experiment [1] deals with virus proliferation. The settings on record: reported in literature; cited from earlier work.
The target of experiment [2] is T1, RNase H activity of wild type reverse transcriptase of HIV (Human immunodeficiency virus type 1 group M subtype B, UniProt P04585). The conditions noted are these: wild type RT, with preincubation.
The target of experiment [3] is T2, RNase H activity of Y188L mutant enzyme of HIV (Human immunodeficiency virus type 1 group M subtype B, UniProt P04585, Y775L). The settings on record: with preincubation.
In experiment [4] the target is T1, RNase H activity of wild type reverse transcriptase of HIV. Briefly: biochemical.
The target of experiment [5] is polymerase activity of wild type reverse transcriptase of HIV (Human immunodeficiency virus type 1 group M subtype B, UniProt P04585). The experiment in a line: biochemical. The conditions noted are these: Polymerase IC50, wild type RT.
Experiment [6] has as its target T2, RNase H activity of Y188L mutant enzyme of HIV. Briefly: biochemical.
Experiment [7] has as its target polymerase activity of Y188L mutant enzyme of HIV (Human immunodeficiency virus type 1 group M subtype B, UniProt P04585, Y775L). The experiment in a line: biochemical.
Where [8] appears, read: with preincubation, with metal cofactors.
Where [9] appears, read: with preincubation, without metal cofactors.

Where two headings read alike, the source gives them in different places. Bounds are passed on as bounds.

Usually IC50 stands for the point on the concentration scale where inhibition reaches its midpoint. Read a low IC50 as greater potency in that assay.

Take `O=C(O)C(=O)CC(=O)c1ccc(NC(=O)c2ccccc2)s1` [Compound 1, 4-[5-(benzoylamino)thien-2-yl]-2,4-dioxobutanoic acid]: in experiment [1], the “inhibition of virus proliferation in cell-based assay” value was “can not inhibit virus proliferation”.

Take `Cc1ccc(C(=O)Nc2ccc(S(=O)(=O)O)c3cc(S(=O)(=O)O)cc(S(=O)(=O)O)c23)cc1NC(=O)c1cccc(NC(=O)Nc2cccc(C(=O)Nc3cc(C(=O)Nc4ccc(S(=O)(=O)O)c5cc(S(=O)(=O)O)cc(S(=O)(=O)O)c45)ccc3C)c2)c1` [suramin, Suramin sodium]: the “RNaseH IC50” value in experiment [2] (with metal cofactors), in experiment [2] (without metal cofactors), in experiment [3] (with metal cofactors) and in experiment [3] (without metal cofactors) was “≈POL” throughout. The IC50 was over 77.1 µM in experiment [4]; 2.47 µM in experiment [5] (setting [8]); 16.2 µM in experiment [5] (setting [9]); over 77.1 µM in experiment [5] (without preincubation); over 77.1 µM in experiment [6]; 2.47 µM in experiment [7] (setting [8]). Besides, the IC50 in experiment [7] (setting [9]) is 10 µM; in experiment [7] (without preincubation) it was over 77.1 µM.

(Values after patent US7572579B2, “Screening method for a ribonuclease H inhibitor of a reverse transcriptase” (priority 2004, dated 2009).)
